Reference: PubChem BioAssay AID2060490 (Molecular Pharmacology Branch, DTP, NCI, 2025)

Test system: 885512-296-R-J2-PDC complex spheroid viability
Test: Anticancer human tumor 885512-296-R-J2-PDC patient-derived breast carcinoma cell line growth inhibition [GQUAD]
Conditions: for IC50: curve of first compound; for viability, T/C: stronger effect = lower value
Summary of the method: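 Tumor cells were grown as complex spheroids with HUVEC endothelial cells and mesenchymal stem cells as stroma. G-quadruplex stabilizers were combined with targeted agents over half-log dilutions from near the clinical Cmax, or from 10 microM.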

[1] = second compound 0.0316 µM, first compound 0.0316 µM
[2] = second compound 0.0316 µM, first compound 0.1 µM
[3] = second compound 0.0316 µM, first compound 0.316 µM
[4] = second compound 0.0316 µM, first compound 1 µM
[5] = second compound 0.0316 µM, first compound 3.16 µM
[6] = second compound 0.0316 µM, first compound 10 µM
[7] = second compound 0.1 µM, first compound 0.0316 µM
[8] = second compound 0.1 µM, first compound 0.1 µM
[9] = second compound 0.1 µM, first compound 0.316 µM
[10] = second compound 0.1 µM, first compound 1 µM
[11] = second compound 0.1 µM, first compound 3.16 µM
[12] = second compound 0.1 µM, first compound 10 µM
[13] = second compound 0.316 µM, first compound 0.0316 µM
[14] = second compound 0.316 µM, first compound 0.1 µM
[15] = second compound 0.316 µM, first compound 0.316 µM
[16] = second compound 0.316 µM, first compound 1 µM
[17] = second compound 0.316 µM, first compound 3.16 µM
[18] = second compound 0.316 µM, first compound 10 µM
[19] = second compound 1 µM, first compound 0.0316 µM
[20] = second compound 1 µM, first compound 0.1 µM
[21] = second compound 1 µM, first compound 0.316 µM
[22] = second compound 1 µM, first compound 1 µM
[23] = second compound 1 µM, first compound 3.16 µM
[24] = second compound 1 µM, first compound 10 µM
[25] = second compound 3.16 µM, first compound 0.0316 µM
[26] = second compound 3.16 µM, first compound 0.1 µM
[27] = second compound 3.16 µM, first compound 0.316 µM
[28] = second compound 3.16 µM, first compound 1 µM
[29] = second compound 3.16 µM, first compound 3.16 µM
[30] = second compound 3.16 µM, first compound 10 µM
[31] = second compound 10 µM, first compound 0.0316 µM
[32] = second compound 10 µM, first compound 0.1 µM
[33] = second compound 10 µM, first compound 0.316 µM
[34] = second compound 10 µM, first compound 1 µM
[35] = second compound 10 µM, first compound 3.16 µM
[36] = second compound 10 µM, first compound 10 µM
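Also: spheroids exposed to the compounds for one week.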
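For viability, T/C in this document: percent of tumor spheroid viability relative to DMSO vehicle control wells.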

**Q.** Which results are given for `CC1COCCN1c1cc(C2(S(C)(=N)=O)CC2)nc(-c2ccnc3[nH]ccc23)n1` (stereo unspecified) + Cc1cnc(CNC(=O)c2c(=O)c3ccc(N4CCCN(C)CC4)nc3n3c2sc2ccccc23)cn1?
**A.** IC50 (second compound 0.0316 µM): 367 nM; IC50 (second compound 0.1 µM): 92.8 nM; IC50 (second compound 0.316 µM): < 31.6 nM; IC50 (second compound 1 µM): < 31.6 nM; IC50 (second compound 3.16 µM): < 31.6 nM; IC50 (second compound 10 µM): < 31.6 nM; viability, T/C [1]: 73.9%; viability, T/C [2]: 66.2%; viability, T/C [3]: 55.8%; viability, T/C [4]: 15.9%; viability, T/C [5]: 4.2%; viability, T/C [6]: 3.7%; viability, T/C [7]: 63.4%; viability, T/C [8]: 47.5%; viability, T/C [9]: 31.3%; viability, T/C [10]: 11.4%; viability, T/C [11]: 5.24%; viability, T/C [12]: 3.6%; viability, T/C [13]: 25.2%; viability, T/C [14]: 19.2%; viability, T/C [15]: 19.4%; viability, T/C [16]: 8.96%; viability, T/C [17]: 4.98%; viability, T/C [18]: 4.66%; viability, T/C [19]: 19.8%; viability, T/C [20]: 20.2%; viability, T/C [21]: 17.1%; viability, T/C [22]: 8.13%; viability, T/C [23]: 4.36%; viability, T/C [24]: 4.77%; viability, T/C [25]: 25.1%; viability, T/C [26]: 18.4%; viability, T/C [27]: 17%; viability, T/C [28]: 4.84%; viability, T/C [29]: 3.04%; viability, T/C [30]: 3.44%; viability, T/C [31]: 0.12%; viability, T/C [32]: 0.18%; viability, T/C [33]: 0.22%; viability, T/C [34]: 0.19%; viability, T/C [35]: 0.24%; viability, T/C [36]: 0.23%

**Q.** Which results are given for `Cn1ncnc1[C@H]1c2n[nH]c(=O)c3cc(F)cc(c23)N[C@@H]1c1ccc(F)cc1` + Cc1cnc(CNC(=O)c2c(=O)c3ccc(N4CCCN(C)CC4)nc3n3c2sc2ccccc23)cn1?
**A.** IC50 (second compound 0.0316 µM): 43.5 nM; IC50 (second compound 0.1 µM): 3.57 nM; IC50 (second compound 0.316 µM): < 0.999 nM; IC50 (second compound 1 µM): < 0.999 nM; IC50 (second compound 3.16 µM): < 0.999 nM; IC50 (second compound 10 µM): < 0.999 nM; viability, T/C (second compound 0.0316 µM, first compound 0.000999 µM): 89.2%; viability, T/C (second compound 0.0316 µM, first compound 0.00316 µM): 83.8%; viability, T/C (second compound 0.0316 µM, first compound 0.00999 µM): 73.5%; viability, T/C [1]: 57%; viability, T/C (second compound 0.0316 µM, first compound 0.0999 µM): 34.4%; viability, T/C [3]: 25.5%; viability, T/C (second compound 0.1 µM, first compound 0.000999 µM): 51.7%; viability, T/C (second compound 0.1 µM, first compound 0.00316 µM): 57.4%; viability, T/C (second compound 0.1 µM, first compound 0.00999 µM): 37.1%; viability, T/C [7]: 34%; viability, T/C (second compound 0.1 µM, first compound 0.0999 µM): 27.3%; viability, T/C [9]: 21.1%; viability, T/C (second compound 0.316 µM, first compound 0.000999 µM): 31.3%; viability, T/C (second compound 0.316 µM, first compound 0.00316 µM): 24%; viability, T/C (second compound 0.316 µM, first compound 0.00999 µM): 24.2%; viability, T/C [13]: 20.5%; viability, T/C (second compound 0.316 µM, first compound 0.0999 µM): 24%; viability, T/C [15]: 20.1%; viability, T/C (second compound 1 µM, first compound 0.000999 µM): 27.4%; viability, T/C (second compound 1 µM, first compound 0.00316 µM): 22.9%; viability, T/C (second compound 1 µM, first compound 0.00999 µM): 24.3%; viability, T/C [19]: 19.2%; viability, T/C (second compound 1 µM, first compound 0.0999 µM): 20%; viability, T/C [21]: 21.6%; viability, T/C (second compound 3.16 µM, first compound 0.000999 µM): 30.3%; viability, T/C (second compound 3.16 µM, first compound 0.00316 µM): 26.9%; viability, T/C (second compound 3.16 µM, first compound 0.00999 µM): 23.2%; viability, T/C [25]: 26.2%; viability, T/C (second compound 3.16 µM, first compound 0.0999 µM): 21.3%; viability, T/C [27]: 22.2%; viability, T/C (second compound 10 µM, first compound 0.000999 µM): 0.17%; viability, T/C (second compound 10 µM, first compound 0.00316 µM): 0.23%; viability, T/C (second compound 10 µM, first compound 0.00999 µM): 0.25%; viability, T/C [31]: 0.19%; viability, T/C (second compound 10 µM, first compound 0.0999 µM): 0.2%; viability, T/C [33]: 0.23%

**Q.** How did the IC50 (second compound 0.0316 µM) turn out when `O=C(c1cc(Cc2n[nH]c(=O)c3ccccc23)ccc1F)N1CCN(C(=O)C2CC2)CC1` + Cc1cnc(CNC(=O)c2c(=O)c3ccc(N4CCCN(C)CC4)nc3n3c2sc2ccccc23)cn1 was run?
**A.** 2560 nM

**Q.** What about the IC50 (second compound 0.1 µM) of the same molecule?
**A.** 551 nM

**Q.** What about the IC50 (second compound 0.316 µM) of the same molecule?
**A.** < 31.6 nM

**Q.** And the IC50 (second compound 1 µM)?
**A.** < 31.6 nM

**Q.** And the IC50 (second compound 3.16 µM)?
**A.** < 31.6 nM

**Q.** What about the IC50 (second compound 10 µM) of the same molecule?
**A.** < 31.6 nM

**Q.** What about the viability, T/C [1] of the same molecule?
**A.** 78.3%

**Q.** What about the viability, T/C [2] of the same molecule?
**A.** 69.4%

**Q.** And the viability, T/C [3]?
**A.** 95.4%

**Q.** What about the viability, T/C [4] of the same molecule?
**A.** 83.6%

**Q.** What about the viability, T/C [5] of the same molecule?
**A.** 42.9%

**Q.** And the viability, T/C [6]?
**A.** 23.8%

**Q.** What about the viability, T/C [7] of the same molecule?
**A.** 57.4%

**Q.** And the viability, T/C [8]?
**A.** 55.5%

**Q.** What about the viability, T/C [9] of the same molecule?
**A.** 53.2%

**Q.** And the viability, T/C [10]?
**A.** 46.8%

**Q.** And the viability, T/C [11]?
**A.** 35.4%

**Q.** And the viability, T/C [12]?
**A.** 22.5%

**Q.** And the viability, T/C [13]?
**A.** 28.4%

**Q.** And the viability, T/C [14]?
**A.** 26.7%

**Q.** What about the viability, T/C [15] of the same molecule?
**A.** 25.7%

**Q.** What about the viability, T/C [16] of the same molecule?
**A.** 17.6%

**Q.** And the viability, T/C [17]?
**A.** 10.7%

**Q.** What about the viability, T/C [18] of the same molecule?
**A.** 15.5%

**Q.** And the viability, T/C [19]?
**A.** 23.4%

**Q.** And the viability, T/C [20]?
**A.** 22.8%

**Q.** And the viability, T/C [21]?
**A.** 25.7%

**Q.** What about the viability, T/C [22] of the same molecule?
**A.** 21%

**Q.** And the viability, T/C [23]?
**A.** 18%

**Q.** And the viability, T/C [24]?
**A.** 18.4%

**Q.** And the viability, T/C [25]?
**A.** 25%

**Q.** And the viability, T/C [26]?
**A.** 26.6%

**Q.** And the viability, T/C [27]?
**A.** 27%

**Q.** What about the viability, T/C [28] of the same molecule?
**A.** 24.5%

**Q.** What about the viability, T/C [29] of the same molecule?
**A.** 23%

**Q.** And the viability, T/C [30]?
**A.** 8.85%

**Q.** What about the viability, T/C [31] of the same molecule?
**A.** 0.44%

**Q.** And the viability, T/C [32]?
**A.** 0.21%

**Q.** What about the viability, T/C [33] of the same molecule?
**A.** 0.23%

**Q.** And the viability, T/C [34]?
**A.** 0.19%

**Q.** And the viability, T/C [35]?
**A.** 0.23%

**Q.** And the viability, T/C [36]?
**A.** 0.19%
